Assay results reported in patent publication US10246418B2, “Crystal form of lenvatinib methanesulfonate salt and preparation method thereof” (CRYSTAL PHARMATECH CO., LTD., priority 2015, dated 2019).
Converted amounts (≈) assume the structure as drawn.

How the values were obtained:
[1] = Stability assessment of crystalline form by XRPD before and after storage; type: physicochemical; settings: 7 days
Procedure: FIG. 7a˜7c show XRPD patterns overlay of crystalline Form M of lenvatinib mesylate before and after stored in the following conditions for 7 days: a) sealed in aluminum plastic bags at 25° C./60% RH; b) sealed in aluminum plastic bags at 40° C./75% RH; c) sealed in aluminum plastic bags at 60° C./75% RH.
Stability assessment of Form M of lenvatinib mesylate of the present disclosure:
Three samples of crystalline Form M of lenvatinib mesylate were stored under the following conditions: a) sealed in aluminum plastic bags at 25° C./60% RH; b) sealed in aluminum plastic bags at 40° C./75% RH; c) sealed in aluminum plastic bags at 60° C./75% RH. The samples were tested by XRPD before and after stored for 7 days.

[2] = Solubility comparison: saturated solutions in SGF, FaSSIF, FeSSIF and high purity water, concentration by HPLC; settings: for solubility at 24 h: thermodynamic from solid; for Solubility: HPLC
Procedure: Solubility comparison between crystalline Form M of lenvatinib mesylate of the present disclosure and anhydrate Form C in patent CN1890220A:
Crystalline Form M of lenvatinib mesylate prepared in example 1 and anhydrate Form C in CN1890220A were prepared into saturated solution in pH 1.8 SGF (Simulated gastric fluid), pH 5.0 FeSSIF (Fed state simulated intestinal fluid), FassIF (Fasted state simulated intestinal fluid) and high purity water. Concentrations in the saturated solutions were determined after 24 hours by HPLC.

In the case of `COc1cc2nccc(Oc3ccc(NC(=O)NC4CC4)c(Cl)c3)c2cc1C(N)=O` [Form M, 4-{3-Chloro-4-[(cyclopropylcarbamoyl)amino]phenoxy}-7-methoxy-6-quinolinecarboxamide], the “Crystalline form stability (XRPD pattern before and after storage)” value (shortened to “Crystalline form stability”) ([1]; sealed in aluminum plastic bags at 25° C./60% RH) is reported as “remained unchanged”, the “Crystalline form stability” value ([1]; sealed in aluminum plastic bags at 40° C./75% RH) is reported as “remained unchanged” and the “Crystalline form stability” value ([1]; sealed in aluminum plastic bags at 60° C./75% RH) is reported as “remained unchanged”. For the same compound, the “Solubility in comparison with Form C in patent CN1890220A” value ([2]; SGF, FaSSIF, FeSSIF, high purity water, 24 h) was “higher solubility”, the solubility at 24 h ([2]; fasted state simulated intestinal fluid (FaSSIF), fassif) was 24 µg/mL (≈ 56.2 µM) and the solubility at 24 h ([2]; fed state simulated intestinal fluid (FeSSIF), pH 5, fessif) was 0.4 µg/mL (≈ 0.937 µM). The solubility at 24 h ([2]; high purity water, water) was 1600 µg/mL (≈ 3750 µM) and the solubility at 24 h ([2]; simulated gastric fluid (SGF), pH 1.8, simulated gastric fluid) was 690 µg/mL (≈ 1620 µM).

With `COc1cc2nccc(Oc3ccc(NC(=O)NC4CC4)c(Cl)c3)c2cc1C(N)=O.CS(=O)(=O)O` [Form C, reference compound] the Solubility ([2]; FaSSIF (fasted state simulated intestinal fluid), saturated solution, 24 h) was 1.5 µg/mL, the Solubility ([2]; FeSSIF (fed state simulated intestinal fluid) pH 5.0, saturated solution, 24 h) was 0.3 µg/mL and the Solubility ([2]; High purity water, saturated solution, 24 h) was 1000 µg/mL. It also gave a Solubility ([2]; SGF (simulated gastric fluid) pH 1.8, saturated solution, 24 h) of 640 µg/mL.
